Like-named read-outs stand apart in the source and are kept apart here.
How the values were obtained:
[1] = RNA encapsulation efficiency of LNP (Ribogreen fluorescence assay); assay type: physicochemical
Summary of the method: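 LNP samples diluted in 1× TE buffer with 0.2% Triton X-100 (total RNA) or without it (free RNA), stained with RiboGreen for ~10 min at room temperature in the dark, read at ex 488/em 525 nm against RNA standard curves. Encapsulation efficiency = (Total RNA − Free RNA)/Total RNA.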

TTR [2] = experiment: TTR editing in mouse liver by NGS after i.v. LNP delivery of Cas9 mRNA and sgRNA; assay type: in vivo; conditions: for % Editing (TTR, liver): Example 55: 0.1 mpk i.v.
Summary of the method: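 Cas9 mRNA and chemically modified sgRNA were co-formulated in LNPs made of an ionizable amine lipid, DSPC, cholesterol and PEG-2k-DMG at a 6.0 N:P ratio. CD-1 female mice aged 6-10 weeks received tail-vein injections of 0.2 mL. Liver genomic DNA was then amplified around the target site and sequenced on an Illumina MiSeq, with editing calculated as indel-containing reads over total reads.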

TTR [3] = experiment: Transthyretin (TTR) ELISA analysis of mouse serum after LNP dosing; assay type: in vivo; conditions: for response vs control in vivo at 0.1 mg/kg / response vs control in vivo at 0.03 mg/kg: read-out: Serum TTR % TSS
Summary of the method: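 Female CD-1 mice aged 6-10 weeks were grouped by body weight and given LNPs by lateral tail vein injection (0.2 mL per animal, about 10 mL per kilogram). Mice were bled by cardiac puncture under isoflurane into serum separator tubes. Serum was diluted 10,000-fold for the 0.1 mpk dose, and total TTR was quantified with a Mouse Prealbumin (Transthyretin) ELISA Kit following the kit directions.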

[4] = Table 3, Example 52: LNP, Cas9 mRNA + sgRNA (G650) 1:1 w/w, N:P 6.0, Compound 19 50/9/38/3, others 50/10/38.5/1.5
[5] = Table 5, Example 53: LNP with gRNA G282 (TTR), 1:1 w/w, N:P 6.0
[6] = Table 5, Example 53: LNP with gRNA G650 (B2M), 1:1 w/w, N:P 6.0
[7] = Table 10, Example 55: LNP, G282 (TTR) 1:1 w/w, N:P 6.0
[8] = Table 14, Example 58: LNP, G282 (TTR) 1:1 w/w, N:P 6.0
[9] = Table 16, Example 59: LNP, G282 (TTR) 1:1 w/w, N:P 6.0
[10] = Table 18, Example 60: LNP, G502 (TTR), sgRNA:Cas9 mRNA 1:2 w/w, N:P 6.0
[11] = Table 22, Example 62: LNP, G282 (TTR), sgRNA:Cas9 mRNA 1:2 w/w, N:P 6.0
[12] = Table 24, Example 63: LNP, G282 (TTR) 1:1 w/w, NP 6.0
[13] = Example 53: 0.1 mpk i.v., CD-1 female mice, 6 days post-dose, G282 1:1
[14] = Example 53: 0.3 mpk i.v., CD-1 female mice, 6 days post-dose, G282 1:1
[15] = CD-1 female mice, 7 days post-dose, G282 1:1
[16] = Example 59: 0.1 mpk i.v., CD-1 female mice, 7 days post-dose, G282 1:1
[17] = Example 60: 0.1 mpk i.v., CD-1 female mice, 6 days post-dose, G502 1:2
[18] = Example 62: 0.03 mpk i.v., CD-1 female mice, 7 days post-dose, G282 1:2
[19] = Example 62: 0.1 mpk i.v., CD-1 female mice, 7 days post-dose, G282 1:2
[20] = Example 63: 0.03 mpk i.v., CD-1 female mice, 7 days post-dose, G282 1:1
[21] = Example 63: 0.1 mpk i.v., CD-1 female mice, 7 days post-dose, G282 1:1
[22] = Example 53: 0.1 mpk i.v., 6 days post-dose, G282 1:1
[23] = Example 53: 0.3 mpk i.v., 6 days post-dose, G282 1:1
[24] = Example 55: 0.1 mpk i.v., 7 days post-dose, G282 1:1
[25] = Example 56: 0.1 mpk i.v., 7 days post-dose, G282
[26] = Example 59: 0.1 mpk i.v., 7 days post-dose, G282 1:1
[27] = Example 60: 0.1 mpk i.v., 6 days post-dose, G502 1:2
[28] = Example 62: 0.03 mpk i.v., 7 days post-dose, G282 1:2
[29] = Example 62: 0.1 mpk i.v., 7 days post-dose, G282 1:2
[30] = Example 63: 0.03 mpk i.v., 7 days post-dose, G282 1:1
[31] = Example 63: 0.1 mpk i.v., 7 days post-dose, G282 1:1
[32] = Mus musculus, iv, 144 h, Example 58: 0.1 mpk i.v., 6 days post-dose, G282 1:1
[33] = Mus musculus, iv, 144 h, Example 60: 0.1 mpk i.v., 6 days post-dose, G502 1:2
[34] = Mus musculus, iv, 168 h, Example 59: 0.1 mpk i.v., 7 days post-dose, G282 1:1
[35] = Mus musculus, iv, 168 h, Example 62: 0.03 mpk i.v., 7 days post-dose, G282 1:2
[36] = Mus musculus, iv, 168 h, Example 62: 0.1 mpk i.v., 7 days post-dose, G282 1:2
[37] = Mus musculus, iv, 168 h, Example 63: 0.03 mpk i.v., 7 days post-dose, G282 1:1
[38] = Mus musculus, iv, 168 h, Example 63: 0.1 mpk i.v., 7 days post-dose, G282 1:1
[39] = Example 58: 0.1 mpk i.v., CD-1 female mice, 6 days post-dose, G282 1:1
[40] = Example 58: 0.1 mpk i.v., 6 days post-dose, G282 1:1

## CCCCC/C=C\C/C=C\CCCCCCCC(=O)OCC(COC(=O)CCC(OCCCCCCCC)OCCCCCCCC)COC(=O)OCCCN(CC)CC (stereo not drawn) [Compound 19, 3-((4,4-bis(octyloxy)butanoyl)oxy)-2-(((((3-(diethylamino)propoxy))-carbonyl)oxy)methyl)propyl (9Z,12Z)-octadeca-9,12-dienoate, reference compound]
[1]; [4]
  Encapsulation (%): 98%
[1]; [5]
  Encapsulation (%): 99%
[1]; [6]
  Encapsulation (%): 98%
[1]; Table 8, Example 54: LNP, G650 (B2M) 1:1 w/w, N:P 6.0
  Encapsulation (%): 98%
[1]; [7]
  Encapsulation (%): 98%
[1]; Table 12, Example 56: LNP, G282 (TTR), ratio 6.0
  Encapsulation (%): 97%
[1]; [8]
  Encapsulation (%): 99%
[1]; [9]
  Encapsulation (%): 98%
[1]; [10]
  Encapsulation (%): 99%
[1]; Table 20, Example 61: LNP, G282 (TTR) 1:1 w/w, N:P 6.0
  Encapsulation (%): 98%
[1]; [11]
  Encapsulation (%): 99%
[1]; [12]
  Encapsulation (%): 98%
[1]; Table 26, Example 64: LNP, G282 (TTR) 1:1 w/w, N:P 6.0
  Encapsulation (%): 98%
TTR [2]; [13]
  TTR Editing (%): 13.8%
TTR [2]; [14]
  TTR Editing (%): 45.9%
TTR [2]; [15]
  % Editing (TTR, liver): 29%
TTR [2]; Example 56: 0.1 mpk i.v., CD-1 female mice, 7 days post-dose, G282
  Editing %: 15%
TTR [2]; [16]
  Editing Mean % Indel: 29.3%
TTR [2]; [17]
  Editing Mean % Indel: 41.4%
TTR [2]; Example 61: 0.1 mpk i.v., CD-1 female mice, 7 days post-dose, G282 1:1
  Editing Mean % Indel: 35.9%
TTR [2]; [18]
  Editing Mean % Indel: 7.0%
TTR [2]; [19]
  Editing Mean % Indel: 27.1%
TTR [2]; [20]
  Editing Mean % Indel: 30.18%
TTR [2]; [21]
  Editing Mean % Indel: 56.02%
TTR [2]; Example 64: Dose 0.03 mpk (table) i.v., CD-1 female mice, 7 days post-dose, G282 1:1
  Editing Mean % Indel: 5.2%
TTR [3]; [22]
  TSS (serum TTR % TSS): 85 % TSS
TTR [3]; [13]
  Serum TTR: 55 µg/mL
TTR [3]; [23]
  TSS (serum TTR % TSS): 3 % TSS
TTR [3]; [14]
  Serum TTR: 55 µg/mL
TTR [3]; [24]
  Serum TTR: 528 µg/mL
  Serum TTR (% TSS): 46 % TSS
TTR [3]; [25]
  Serum TTR: 865 µg/mL
  Serum TTR (% TSS): 108 % TSS
TTR [3]; [26]
  Serum TTR: 438 µg/mL
TTR [3]; [27]
  Serum TTR: 517 µg/mL
TTR [3]; Example 61: 0.1 mpk i.v., 7 days post-dose, G282 1:1
  Serum TTR: 438 µg/mL
TTR [3]; [28]
  Serum TTR: 560 µg/mL
TTR [3]; [29]
  Serum TTR: 414 µg/mL
TTR [3]; [30]
  Serum TTR: 593.01 µg/mL
TTR [3]; [31]
  Serum TTR: 134.54 µg/mL
TTR [3]; Example 64: Dose 0.03 mpk (table) i.v., 7 days post-dose, G282 1:1
  Serum TTR: 622.0 µg/mL
TTR [3]; [32]
  response vs control in vivo at 0.1 mg/kg: 59%
TTR [3]; [33]
  response vs control in vivo at 0.1 mg/kg: 36%
TTR [3]; [34]
  response vs control in vivo at 0.1 mg/kg: 47%
TTR [3]; Mus musculus, iv, 168 h, Example 61: 0.1 mpk i.v., 7 days post-dose, G282 1:1
  response vs control in vivo at 0.1 mg/kg: 34%
TTR [3]; [35]
  response vs control in vivo at 0.03 mg/kg: 88%
TTR [3]; [36]
  response vs control in vivo at 0.1 mg/kg: 65%
TTR [3]; [37]
  response vs control in vivo at 0.03 mg/kg: 73.5%
TTR [3]; [38]
  response vs control in vivo at 0.1 mg/kg: 16.7%
TTR [3]; Mus musculus, iv, 168 h, Example 64: Dose 0.03 mpk (table) i.v., 7 days post-dose, G282 1:1, read-out: Serum TTR (% KD)
  inhibition in vivo at 0.03 mg/kg: -8.6%

## CCCCCCCCCOC(=O)CCCCCCCN(CCO)CCCCCCCC(OCCCCCCCC)OCCCCCCCC [Compound 1, nonyl 8-((8,8-bis(octyloxy)octyl)(2-hydroxyethyl)amino octanoate]
[1]; [4]
  Encapsulation (%): 98%
[1]; [5]
  Encapsulation (%): 97%
[1]; [6]
  Encapsulation (%): 98%
[1]; [7]
  Encapsulation (%): 97%
[1]; [8]
  Encapsulation (%): 97%
[1]; [9]
  Encapsulation (%): 96%
[1]; [10]
  Encapsulation (%): 97%
[1]; [11]
  Encapsulation (%): 97%
[1]; [12]
  Encapsulation (%): 98%
TTR [2]; [13]
  TTR Editing (%): 55.4%
TTR [2]; [14]
  TTR Editing (%): 59.3%
TTR [2]; Example 53 text: 0.1 and 0.3 mpk
  TTR editing in the liver compared with Compound 19 formulations: higher TTR editing in the liver than Compound 19 formulations at each dose
TTR [2]; Example 53 text: both the 0.1 mpk and 0.3 mpk doses
  editing of TTR: 55-60%
TTR [2]; [15]
  % Editing (TTR, liver): 43%
TTR [2]; [39]
  Editing Mean % Indel: 29.5%
TTR [2]; [16]
  Editing Mean % Indel: 41.6%
TTR [2]; [17]
  Editing Mean % Indel: 46.3%
TTR [2]; [18]
  Editing Mean % Indel: 8.9%
TTR [2]; [19]
  Editing Mean % Indel: 34.2%
TTR [2]; [20]
  Editing Mean % Indel: 10.86%
TTR [2]; [21]
  Editing Mean % Indel: 41.10%
TTR [3]; [22]
  TSS (serum TTR % TSS): 5 % TSS
TTR [3]; [13]
  Serum TTR: 19 µg/mL
TTR [3]; [23]
  TSS (serum TTR % TSS): 5 % TSS
TTR [3]; [14]
  Serum TTR: 5 µg/mL
TTR [3]; [24]
  Serum TTR: 391 µg/mL
  Serum TTR (% TSS): 34 % TSS
TTR [3]; [40]
  Serum TTR: 656 µg/mL
TTR [3]; [26]
  Serum TTR: 327 µg/mL
TTR [3]; [27]
  Serum TTR: 353 µg/mL
TTR [3]; [28]
  Serum TTR: 594 µg/mL
TTR [3]; [29]
  Serum TTR: 241 µg/mL
TTR [3]; [30]
  Serum TTR: 741.05 µg/mL
TTR [3]; [31]
  Serum TTR: 351.76 µg/mL
TTR [3]; [32]
  response vs control in vivo at 0.1 mg/kg: 66%
TTR [3]; [33]
  response vs control in vivo at 0.1 mg/kg: 25%
TTR [3]; [34]
  response vs control in vivo at 0.1 mg/kg: 35%
TTR [3]; [35]
  response vs control in vivo at 0.03 mg/kg: 93%
TTR [3]; [36]
  response vs control in vivo at 0.1 mg/kg: 38%
TTR [3]; [37]
  response vs control in vivo at 0.03 mg/kg: 91.8%
TTR [3]; [38]
  response vs control in vivo at 0.1 mg/kg: 43.6%

## CCCCCCCCOC(CCCCCCCN(CCO)CCCCCCCC(=O)OC(CC)CCCCCCCC)OCCCCCCCC (stereo not drawn) [Compound 17, undecan-3-yl 8-((8,8-bis(octyloxy)octyl)(2-hydroxyethyl)amino)octanoate]
[1]; [8]
  Encapsulation (%): 91%
[1]; [11]
  Encapsulation (%): 94%
TTR [2]; [39]
  Editing Mean % Indel: 40.8%
TTR [2]; [18]
  Editing Mean % Indel: 4.0%
TTR [2]; [19]
  Editing Mean % Indel: 45.9%
TTR [3]; [40]
  Serum TTR: 479 µg/mL
TTR [3]; [28]
  Serum TTR: 495 µg/mL
TTR [3]; [29]
  Serum TTR: 304 µg/mL
TTR [3]; [32]
  response vs control in vivo at 0.1 mg/kg: 48%
TTR [3]; [35]
  response vs control in vivo at 0.03 mg/kg: 78%
TTR [3]; [36]
  response vs control in vivo at 0.1 mg/kg: 48%

— patent US20260225997A1, “IONIZABLE AMINE LIPIDS” (Intellia Therapeutics, Inc., priority 2018, published 2026)
